Measurements: patent US10385057B2, “Pyrazole compounds and methods of making and using same” (Lundbeck La Jolla Research Center, Inc., priority 2015, dated 2019)

Key:
FAAH = molecular target: T1, FAAH (Mus musculus, UniProt O08914); assay: In vitro competitive activity-based protein profiling, mouse FAAH; assay type: biochemical; settings: 1 μM, read-out: FAAH % inh. 1 μM (mouse)
T1 construct: mouse brain membrane fraction or cell lysates for mouse assays; from tissue
T1 sequence (O08914 1-579): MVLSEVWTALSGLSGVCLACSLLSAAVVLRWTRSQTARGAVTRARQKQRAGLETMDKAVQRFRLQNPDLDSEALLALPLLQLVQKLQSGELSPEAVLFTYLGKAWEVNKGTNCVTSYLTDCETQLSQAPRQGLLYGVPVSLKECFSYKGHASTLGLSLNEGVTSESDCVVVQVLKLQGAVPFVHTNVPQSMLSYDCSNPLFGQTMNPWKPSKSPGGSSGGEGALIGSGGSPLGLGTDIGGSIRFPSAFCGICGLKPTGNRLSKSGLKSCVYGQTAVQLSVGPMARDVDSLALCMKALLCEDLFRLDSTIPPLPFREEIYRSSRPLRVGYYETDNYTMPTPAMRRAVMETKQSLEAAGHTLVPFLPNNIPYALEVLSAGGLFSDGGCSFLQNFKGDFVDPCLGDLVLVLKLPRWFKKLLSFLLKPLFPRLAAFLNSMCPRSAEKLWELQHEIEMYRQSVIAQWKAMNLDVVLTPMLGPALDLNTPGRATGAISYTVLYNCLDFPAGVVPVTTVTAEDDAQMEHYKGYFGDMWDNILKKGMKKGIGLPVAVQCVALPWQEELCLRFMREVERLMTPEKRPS
Procedure, shortened: (§1)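 Activity measured as fluorescent gel-band intensity of MAGL and FAAH after SDS-PAGE. Before labelling with FP-Rh or HT-01 (30 min, 37 °C), proteomes at 1.0 mg/mL (mouse brain membrane or lysates; human prefrontal cortex or cell membranes) were exposed to varying inhibitor concentrations for 30 min at 37 °C.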

MAGL = molecular target: T2, MAGL (Mus musculus, UniProt O35678); assay: In vitro competitive activity-based protein profiling, mouse MAGL; assay type: biochemical; settings: 1 μM, read-out: MAGL % inh. 1 μM (mouse)
T2 construct: mouse brain membrane fraction or cell lysates for mouse assays; from tissue
T2 sequence (O35678 1-303): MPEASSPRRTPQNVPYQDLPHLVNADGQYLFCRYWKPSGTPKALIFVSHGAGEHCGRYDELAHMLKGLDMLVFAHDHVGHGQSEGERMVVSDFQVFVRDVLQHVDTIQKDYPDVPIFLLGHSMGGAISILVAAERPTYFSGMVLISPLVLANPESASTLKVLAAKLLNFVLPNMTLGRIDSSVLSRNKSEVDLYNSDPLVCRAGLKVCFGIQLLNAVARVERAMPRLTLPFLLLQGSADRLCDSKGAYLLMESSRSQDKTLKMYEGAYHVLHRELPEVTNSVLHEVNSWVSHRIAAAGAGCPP
Procedure, shortened: as §1

Row | inhibition at 1 µM (FAAH) [%] | inhibition at 1 µM (MAGL) [%] | Compound
1 | ≥ 75 | ≥ 75 | NC(=O)c1cnn(C(=O)N2CCC3(CCN(Cc4cc(N5CCOCC5)ccc4C(F)(F)F)C3)C2)c1 (centres unmarked) [Example 212, 1-(7-(5-morpholino-2-(trifluoromethyl)benzyl)-2,7-diazaspiro[4.4]nonane-2-carbonyl)-1H-pyrazole-4-carboxamide]
2 | 50 to 75 | ≥ 75 | NC(=O)c1cnn(C(=O)N2CCC3(CCN(Cc4cc(N5CCCC5)ccc4C(F)(F)F)C3)C2)c1 (centres unmarked) [Example 213, 1-(7-(5-(pyrrolidin-1-yl)-2-(trifluoromethyl)benzyl)-2,7-diazaspiro[4.4]nonane-2-carbonyl)-1H-pyrazole-4-carboxamide]
3 | ≥ 75 | ≥ 75 | CN(Cc1cc(C(F)(F)F)ccc1Cl)[C@H]1C[C@@H]2CN(C(=O)n3cc(C(N)=O)cn3)C[C@@H]2C1 [Example 214, 1-(trans-5-((2-chloro-5-(trifluoromethyl)benzyl)(methyl)amino)octahydrocyclopenta[c]pyrrole-2-carbonyl)-1H-pyrazole-4-carboxamide]
4 | ≥ 75 | ≥ 75 | CN(Cc1cc(Cl)ccc1C(F)(F)F)[C@H]1C[C@@H]2CN(C(=O)n3cc(C(N)=O)cn3)C[C@@H]2C1 [Example 215, 1-(trans-5-((5-chloro-2-(trifluoromethyl)benzyl)(methyl)amino)octahydrocyclopenta[c]pyrrole-2-carbonyl)-1H-pyrazole-4-carboxamide]
5 | ≥ 75 | ≥ 75 | CN(Cc1ccc(C(F)(F)F)c(N2CCCC2)c1)[C@H]1C[C@@H]2CN(C(=O)n3cc(C(N)=O)cn3)C[C@@H]2C1 [Example 216, 1-(trans-5-(methyl(3-(pyrrolidin-1-yl)-4-(trifluoromethyl)benzyl)amino)octahydrocyclopenta[c]pyrrole-2-carbonyl)-1H-pyrazole-4-carboxamide]
6 | ≥ 75 | ≥ 75 | CN(Cc1cc(N2CCCC2)cc(C(F)(F)F)c1)[C@H]1C[C@@H]2CN(C(=O)n3cc(C(N)=O)cn3)C[C@@H]2C1 [Example 217, 1-(trans-5-(methyl(3-(pyrroldin-1-yl)-5-(trifluoromethyl)benzyl)amino)octahydrocyclopenta[c]pyrrole-2-carbonyl)-1H-pyrazole-4-carboxamide]
7 | ≥ 75 | ≥ 75 | CN(Cc1cc(C(F)(F)F)ccc1Cl)[C@@H]1C[C@@H]2CN(C(=O)n3cc(C(N)=O)cn3)C[C@@H]2C1 [Example 218, 1-(cis-5-((2-chloro-5-(trifluoromethyl)benzyl)(methyl)amino)octahydrocyclopenta[c]pyrrole-2-carbonyl)-1H-pyrazole-4-carboxamide]
8 | ≥ 75 | ≥ 75 | CN(Cc1cc(Cl)ccc1C(F)(F)F)[C@@H]1C[C@@H]2CN(C(=O)n3cc(C(N)=O)cn3)C[C@@H]2C1 [Example 219, 1-(cis-5-((5-chloro-2-(trifluoromethyl)benzyl)(methyl)amino)octahydrocyclopenta[c]pyrrole-2-carbonyl)-1H-pyrazole-4-carboxamide]
9 | ≥ 75 | ≥ 75 | CN(Cc1ccc(C(F)(F)F)c(N2CCCC2)c1)[C@@H]1C[C@@H]2CN(C(=O)n3cc(C(N)=O)cn3)C[C@@H]2C1 [Example 221, 1-(cis-5-(methyl(3-(pyrrolidin-1-yl)-4-(trifluoromethyl)benzyl)amino)octahydrocyclopenta[c]pyrrole-2-carbonyl)-1H-pyrazole-4-carboxamide]
10 | ≥ 75 | ≥ 75 | CN(Cc1cc(N2CCCC2)cc(C(F)(F)F)c1)[C@@H]1C[C@@H]2CN(C(=O)n3cc(C(N)=O)cn3)C[C@@H]2C1 [Example 222, 1-(cis-5-(methyl(3-(pyrrolidin-1-yl)-5-(trifluoromethyl)benzyl)amino)octahydrocyclopenta[c]pyrrole-2-carbonyl)-1H-pyrazole-4-carboxamide]
